Earlier results on one compound are cited in patent US5650415A, “Quinoline compounds” (Sugen, Inc., priority 1995, dated 1997).

For data set [1], the system named is human breast cancer cells. As to conditions: Sepp-Lorenzino et al., Abstract, 1994; cited from earlier work.
Data set [2] has as its system IGF-1R protein tyrosine kinase. The following applies: Sepp-Lorenzino et al., Abstract, 1994; cited from earlier work.

With `COC1C=CC=C(C)C(=O)NC2=CC(=O)C=C(C2=O)C(OC)C(C)CC(OC)C(OC)C(C)C=C(C)C1OC(N)=O` (centres unmarked) [Herbimycin A], the “inhibition of cellular proliferation” value in data set [1] was “inhibit the IGF-1R protein tyrosine kinase and cellular proliferation in human breast cancer cells”. For the same compound, the “inhibition of IGF-1R protein tyrosine kinase” value in data set [2] is listed as “inhibit the IGF-1R protein tyrosine kinase”.
